Data set [1] concerns MDA-MB-231 or HB-2 cell lines. Kind of data set: Cytotoxicity assay: MTT. The data set is classed as cell-based, human. The conditions noted are these: for Cytotoxicity at the concentration used in the cell experiments, in words: 10 µM, MTT, Figure S2, HB-2 and MDA-MB-231; for Cytotoxicity (percentage of dead cells): MTT assay, MDA-MB-231 or HB-2 cell lines, greatest concentration of 50 µg/mL, 24 h. The method, then:
Cell viability against cell-penetrating compounds was detected by the MTT assay. The HB2 and MDA-MB-231 cells were seeded into 96-well plates at a density of 5 × 10^3/well and 7 × 10^3/well, respectively, and incubated in complete medium (100 µL/well) for 48 h. […] Cells incubated in media without any test compounds were used as control. After incubation, medium containing test compounds was removed, and 225 µL fresh medium with 25 µL 3-(4,5-dimethylthiazol-2-yl)-2,5-diphenyltetrazolium bromide (MTT) was added (0.5 mg/mL per well). After incubation at 37 °C for 4 h, supernatants were removed, and the formazan crystals were dissolved overnight with dimethyl sulfoxide (DMSO; 150 µL/well). Results were analyzed using a microplate reader (SPECTROstar Nano, BMG LABTECH, Ortenberg, Germany) at 570 nm and 690 nm.
(Formazan colour is commonly taken as a measure of viable cells.)

The next data set deals with HB2 and MDA-MB-231 cells. As to the kind of experiment: Cell permeability and localization by fluorescence microscopy. In kind it is cell-based, human. The conditions noted are these: for Cell membrane crossing and localization, in words: 10 µM, fluorescence microscopy, HB2 or MDA-MB-231 cells; for Cell Permeablility (Target): cellular localization: fluorescence microscope Olympus IX51, 10 µM fluorescently labeled compound, DAPI nucleus staining. The source says:
Preliminary cell permeability experiments facilitated the identification of three groups of compounds. […] The first group includes compound 4 and its derivatives (4a and 4b) and the family of compound 5 (5a and 5b). Compounds 4 and 5 are similar in structure and are composed of six residues of diaminopropionic acid (Dap) decorated with side chains of different lengths, terminating with the same highly positive guanidine moiety. […] Both compounds display unique cellular localization. […] We believe that such effective nuclear localisation of the first group of tested compounds is due to the effective mimicking of the nuclear localisation sequence (NLS). Such sequence consists of several positively charged lysines or arginines present in the protein structure. Additionally, side chain length of the polymer molecules seems to be a crucial factor that is optimal for compounds belonging to first group of polymers.
HB2 and MDA-MB-231 cells were seeded on 24-well plates at a density 1.5 × 10^4/well and 4 × 10^4/well, respectively, and incubated in 0.5 mL complete medium for 48 h. Subsequently, cells were washed with phosphate-buffered saline (PBS), and fresh medium with a fluorescently labeled peptide was added to each well at a concentration of 10 µM. For nucleus staining a DAPI solution (ThermoFisher Scientific, Waltham, MA, USA, […] R37606) in PBS was employed in conditions recommended by the supplier. After the incubation (2 h or 24 h), cells were washed thoroughly with PBS, and then a phenol red-free culture medium (FluoroBrite, DMEM) was added. Subsequently, the cells were examined using an Olympus IX51 fluorescence microscope (Olympus, Tokyo, Japan) using appropriate filters: blue for DAPI, green for FITC, and red TAMRA. Next, the images were merged and colocalization of the dyes’ emission were analyzed.

Data set [2] concerns the target dsDNA (76 bp fragment) containing the sequence of beta-actin. As to the kind of experiment: Microscale thermophoresis (MST), dsDNA binding. Particulars: Monolith NT.115, 0.437 µM 5/6-FAM-labeled compound, dsDNA 6.1 nM–200 µM, EDBS buffer pH 8, 32 °C 1 h, scanned at 25 °C, at least two independent experiments, read-out: Binding constant, double-stranded DNA (MST). More on the design: species or system Homo sapiens. The method, then: (§1) Figure 7 Microscale thermophoresis (MST) analysis of dsDNA binding by 5/6-FAM-labeled compounds. The MST analysis. FAM-labeled compounds 1a (A), 4a (B), 5a (C), and ssDNA binding by 5/6-FAM-labeled compounds 1a (E), 4a (F), 5a (G) was performed using the Monolith NT.115 instrument (NanoTemper). Binding was measured between increasing concentrations (6.1 nM–200 µM) of dsDNA (76 bp fragment) and 0.437 µM of the indicated compounds labeled with 5/6-FAM. Control experiments were performed with DNA and 5/6-FAM dye (D,H).
(§2) Figure 9 Microscale thermophoresis (MST) analysis of dsDNA binding by 5/6-FAM-labeled compounds. The MST analysis of dsDNA binding by 5/6-FAM-labeled compounds 13a (A) and 14a (B), and ssDNA binding by 5/6-FAM-labeled compounds 13a (D) and 14a (E) was performed using the Monolith NT.115 instrument (NanoTemper). Binding was measured between increasing concentration (6.1 nM–200 µM) of dsDNA (76 bp fragment) and 0.437 µM of the indicated compounds labeled with 5/6-FAM. A control experiment was performed with DNA and 5/6-FAM dye (C,F).
(§3) Microscale thermophoresis was performed using the Monolith NT.115 instrument (NanoTemper Technologies GmbH, Munich, Germany). Binding between dsDNA (76 bp) or ssDNA (76 nt) fragments and test compounds labeled with 5/6-FAM was measured. […] All data were analyzed using MO Affinity Analysis software (NanoTemper, Munich, Germany).
(In general: In MST a laser heats a spot of the sample, and binding alters the fluorescence response.)

The target of another data set is ssDNA (76 nt) fragment. Kind of data set: Microscale thermophoresis (MST), ssDNA binding. More on the design: species or system Homo sapiens. Particulars: Monolith NT.115, 0.437 µM 5/6-FAM-labeled compound, EDBS buffer pH 8, 32 °C 1 h, scanned at 25 °C, at least two independent experiments, read-out: Binding constant, single-stranded DNA (MST). The method, then:
as §1, §2, §3

For data set [3], the system named is 76 bp dsDNA fragment containing the sequence of β-actin. As to the kind of experiment: Surface plasmon resonance (SPR), dsDNA binding. The conditions noted are these: 50 and 100 µM compound over immobilized 76 bp dsDNA, HBS-EP buffer. More on the design: species or system Homo sapiens. As to the method:
Standard surface plasmon resonance (SPR) analyses using a Biacore T200 (GE Healthcare, Warsaw, Poland) were performed essentially as described in the manufacturers’ manual. DNA binding by all tested compounds was studied using a 5′-biotinylated 76 nt ssDNA or 76 bp dsDNA fragment containing the sequence of β-actin (Homo sapiens), immobilized on a streptavidin matrix-coated sensor chip SA (GE Healthcare, Warsaw, Poland). All oligonucleotides were commercially synthesized (oligo.pl, Poland; Figures S3 and S4). The dsDNA was immobilized on the sensor surface to yield a final value of ~50 RU for dsDNA or ~100 RU. Experiments were performed at 25 °C, and the running buffer was HBS-EP (150 mM NaCl, 10 mM HEPES (pH = 7.4), 3 mM EDTA, and 0.05% Surfactant P20). In binding experiments, the buffer flow rate was set to 15 µL/min, and in kinetic experiments, the buffer flow rate was 30 µL/min. The data were analyzed using Biacore T200 evaluation software (GE Healthcare, Warsaw, Poland). The results are presented as sensorgrams obtained after subtracting the background response signal from a reference flow cell and from a control experiment with buffer injection.
Figure 2S. Cytotoxicity of compounds 1a–9a as assessed by the MTT assay. Two different cell lines were used: A) HB‐2 and B) MDA‐MB‐231.
Figure 3S. Surface plasmon resonance SPR analysis of double‐stranded DNA (dsDNA) binding by various peptidomimetics. The SPR analysis of dsDNA binding was performed using: A) 50 μM and B) 100 μM of the indicated compounds, flowed over the SA sensor chip surface with immobilized 76 bp biotinylated DNA fragment containing the sequence of beta‐ actin (Homo sapiens). Injections were performed in HBS‐EP buffer. HBS‐EP was also used as […]
Figure 4S. SPR analysis of DNA binding by compound 5a. […] (C) Kinetic constants calculated from at least three experiments using Biacore T200 Evaluation Software […]
In general terms: In SPR one partner is held on a chip, and binding of the other changes the refractive index at the surface.

Square brackets hold non-standard residues; d marks the D form. Peptide text beside a SMILES is read from it. * marks the point of attachment. 5FAM = O=C1OC2(c3ccc(O)cc3Oc3cc(O)ccc32)c2ccc(C(=O)*)cc21; Acetyl(2-(HOCH2CH2OCH2CH2O)) = O=C(COCCOCCO)*; Dap = NC[C@H](N)C(=O)O; AEEA = NCCOCCOCC(=O)O

Consider 5′,6-FAM -O2Oc-(D-arg)6-O2Oc-NH2 [2a], for which the “Cytotoxicity at the concentration used in the cell experiments, in words” value in data set [1] is listed as “slightly cytotoxic”. In the data set on HB2 and MDA-MB-231 cells, the “Cell membrane crossing and localization, in words” value is given as “partially visible in the cytoplasm in the form of granules”; the “Cell Permeablility (Target): cellular localization” value (“Cell Permeablility (Target)” for short) is recorded as “cytoplasm”.
For the molecule 5′,6-FAM -O2Oc-(Har)6-O2Oc-NH2 [3a], the “Cytotoxicity at the concentration used in the cell experiments, in words” value in data set [1] was “slightly cytotoxic”. Moreover, in the data set on HB2 and MDA-MB-231 cells, the “Cell membrane crossing and localization, in words” value is “partially visible in the cytoplasm in the form of granules”; the “Cell Permeablility (Target)” value is “cytoplasm”.
On to “5′,6-FAM [compound 10, reference compound]”, for which the figures for the Kd (in data set [2]; on ssDNA (76 nt) fragment) were 639 ± 703 µM and 399 ± 497 µM, respectively.
As for `NCCOCCOCC(=O)NC[C@H](NC(=O)COCCOCCNC(=O)c1ccc2c(c1)C(=O)OC21c2ccc(O)cc2Oc2cc(O)ccc21)C(=O)N[C@@H](CNC(=O)COCCOCCN)C(=O)N[C@@H](CNC(=O)COCCOCCN)C(=O)N[C@@H](CNC(=O)COCCOCCN)C(=O)N[C@@H](CNC(=O)COCCOCCN)C(=O)N[C@@H](CNC(=O)COCCOCCN)C(=O)NCCOCCOCC(N)=O` [8a, 5′,6-FAM-O2Oc-[Dap(O2)]6-O2Oc-NH2] ({5FAM-AEEA}-[Dap](AEEA)[Dap](AEEA)[Dap](AEEA)[Dap](AEEA)[Dap](AEEA)[Dap](AEEA)[AEEA]-NH2), the “Cell membrane crossing and localization, in words” value in the data set on HB2 and MDA-MB-231 cells is “did not cross the cell membrane”.
In the case of `NC(=O)COCCOCCNC(=O)[C@H](CNC(=O)COCCOCCO)NC(=O)[C@H](CNC(=O)COCCOCCO)NC(=O)[C@H](CNC(=O)COCCOCCO)NC(=O)[C@H](CNC(=O)COCCOCCO)NC(=O)[C@H](CNC(=O)COCCOCCO)NC(=O)[C@H](CNC(=O)COCCOCCO)NC(=O)COCCOCCNC(=O)c1ccc2c(c1)C(=O)OC21c2ccc(O)cc2Oc2cc(O)ccc21` [9a, 5′,6-FAM-O2Oc-[Dap(HO2)]6-O2Oc-NH2] ({5FAM-AEEA}-[Dap](Acetyl(2-(HOCH2CH2OCH2CH2O)))[Dap](Acetyl(2-(HOCH2CH2OCH2CH2O)))[Dap](Acetyl(2-(HOCH2CH2OCH2CH2O)))[Dap](Acetyl(2-(HOCH2CH2OCH2CH2O)))[Dap](Acetyl(2-(HOCH2CH2OCH2CH2O)))[Dap](Acetyl(2-(HOCH2CH2OCH2CH2O)))[AEEA]-NH2), the “Cell membrane crossing and localization, in words” value in the data set with HB2 and MDA-MB-231 cells is “did not cross the cell membrane”.
For `N=C(N)NCCC[C@H](NC(=O)COCCOCCN)C(=O)N[C@@H](CCCNC(=N)N)C(=O)N[C@@H](CCCNC(=N)N)C(=O)N[C@@H](CCCNC(=N)N)C(=O)N[C@@H](CCCNC(=N)N)C(=O)N[C@@H](CCCNC(=N)N)C(=O)NCCOCCOCC(N)=O` [compound 1, O2Oc(Arg)6-O2Oc-NH2], in data set [1], the “Cytotoxicity (percentage of dead cells)” value stood at 10%. The “DNA binding class set arbitrarily from the SPR experiment (Figure S3)” value (from here on “DNA binding class set arbitrarily”) in data set [3] is reported as “Moderate”.
With `N=C(N)NCCC[C@@H](NC(=O)COCCOCCN)C(=O)N[C@H](CCCNC(=N)N)C(=O)N[C@H](CCCNC(=N)N)C(=O)N[C@H](CCCNC(=N)N)C(=O)N[C@H](CCCNC(=N)N)C(=O)N[C@H](CCCNC(=N)N)C(=O)NCCOCCOCC(N)=O` [compound 2, O2Oc(D-arg)6-O2Oc-NH2], the “Cytotoxicity (percentage of dead cells)” value in data set [1] came to 15%. Besides, in data set [3], the “DNA binding class set arbitrarily” value is listed as “Moderate”.
`N=C(N)NCCCC[C@H](NC(=O)COCCOCCN)C(=O)N[C@@H](CCCCNC(=N)N)C(=O)N[C@@H](CCCCNC(=N)N)C(=O)N[C@@H](CCCCNC(=N)N)C(=O)N[C@@H](CCCCNC(=N)N)C(=O)N[C@@H](CCCCNC(=N)N)C(=O)NCCOCCOCC(N)=O` [compound 3, O2Oc-(Har)6-O2Oc-NH2]: in data set [1], the “Cytotoxicity (percentage of dead cells)” value turned out to be 10%. The “DNA binding class set arbitrarily” value in data set [3] is recorded as “Weak”.
In the case of `N=C(N)NCCOCCOCC(=O)NC[C@H](NC(=O)COCCOCCNC(=O)c1ccc2c(c1)C(=O)OC21c2ccc(O)cc2Oc2cc(O)ccc21)C(=O)N[C@@H](CNC(=O)COCCOCCNC(=N)N)C(=O)N[C@@H](CNC(=O)COCCOCCNC(=N)N)C(=O)N[C@@H](CNC(=O)COCCOCCNC(=N)N)C(=O)N[C@@H](CNC(=O)COCCOCCNC(=N)N)C(=O)N[C@@H](CNC(=O)COCCOCCNC(=N)N)C(=O)N[C@@H](CNC(=O)COCCOCCNC(=N)N)C(=O)N[C@@H](CNC(=O)COCCOCCNC(=N)N)C(=O)NCCOCCOCC(N)=O` [compound 14a, 5′,6-FAM-O2Oc-[Dap(GO2)]8-O2Oc-NH2], in the data set on HB2 and MDA-MB-231 cells, the “Cell membrane crossing and localization, in words” value was “efficiently penetrate the membrane and localized in the nucleus”; the “Cell Permeablility (Target)” value is “nucleus”.

Values taken from PMC7961587, “Novel Cell Permeable Polymers of N-Substituted L-2,3-Diaminopropionic Acid (DAPEGs) and Cellular Consequences of Their Interactions with Nucleic Acids” (International Journal of Molecular Sciences, 2021).
